Source: patent US20030065039A1, “Biologically active 1,3-bis-aromatic-prop-2-en-1-ones, 1,3-bis-aromatic-propan-1-ones, and 1,3-bis-aromatic-prop-2-yn-1-ones” (Statens Serum Institute, priority 1997, published 2003)
Where two headings read alike, the source gives them in different places.

Assays:
SDH (J774) = molecular target: T1, SDH (J774) (Mus musculus, UniProt Q8K2B3); test: Effect on J774 cells succinate dehydrogenase; type: biochemical; details: incubation at 28° C. for 5 min
T1 construct: endogenous in cells; host or cells: J774 cells, membrane rich fraction

NDH (human MNC) = test: Effect on human MNC NADH dehydrogenase; type: biochemical; details: incubation at 28° C. for 5 min
Experimental: FIG. 15. Effect of licochalcone A on human MNC NADH dehydrogenase. Membrane rich fraction of parasite was incubated with licochalcone A at 28° C. for 5 min, the remaining enzyme activity was measured. Data are mean ±SEM from 4 different experiments.

[1] = Preliminary 14 days oral toxicity study in rats; type: in vivo; details: highest dose level 1000 mg/kg/day
Experimental: A preliminary 14 days oral toxicity study in rats was carried out with 6 compounds. Observations included clinical signs, body weights, food intake, haematology, clinical chemistry and macroscopic pathology.

Coxsackie virus B4 = test: Antiviral activity in Vero cell cultures; type: cell-based; details: Vero cells; values given as fractions
Experimental: (§1) IC50 values are determined by the virus plaque formation and/or the virus cytopathic assay using standard methods well-known in the art.
(§2) In the following is reported the results from a Vero cell culture infected with different viruses. The cell culture used as well as the methods applied are well known to a person skilled in the art.

Parainfluenza-3 Virus = test: Antiviral activity in Vero cell cultures; type: cell-based; details: Vero cells; values given as fractions
Experimental: as §1, §2

Reovirus-1 = test: Antiviral activity in Vero cell cultures; type: cell-based; details: Vero cells; values given as fractions
Experimental: as §1, §2

Simliki forest virus = test: Antiviral activity in Vero cell cultures; type: cell-based; details: Vero cells; values given as fractions
Experimental: as §1, §2

Sindbis virus = test: Antiviral activity in Vero cell cultures; type: cell-based; details: Vero cells; values given as fractions
Experimental: as §1, §2

IL-1ra = test: Intracellular cytokine staining in stimulated human mononuclear cells; type: cell-based; details: 25 μg/ml compound
Experimental: (§3) Therefore, experiments were performed to examine the effect of Licochalcone A and SBC-35ma on secretion of TNF-α from the stimulated cells. These experiments included detection of the cytokines in the cell lysate by ELISA and staining of the intracellular cytokines by using monoclonal antibodies against these cytokines and cytokine receptors.
(§4) Table 3. Effect of Licochalcone A and SBC-35ma on the presence of intracellur cytokines in the human peripheral blood mononuclear cells stimulated either with a malarial exoantigen SPAG (diluted 1:12.5) or bacterial LPS (diluted 1:1000). The cells were preincubated with 25 μg/ml of each of the compounds for 2 hours and then incubated in the presence of antigens at 37° C. overnight. The cells were permeabilized and then fixed in paraformaldehyde Cytokine specific monoclonal antibodies were used for the detection of positive cells for each cytokine. Data are presented as percentages of positive cells for each cytokine.

IL-1α = test: as above; type: cell-based; details: 25 μg/ml compound, 2 hours preincubation
Experimental: as §3, §4

IL-1β = test: as above; type: cell-based; details: 25 μg/ml compound
Experimental: as §3, §4

IL-2 = test: as above; type: cell-based; details: 25 μg/ml compound
Experimental: as §3, §4

IL-4 = test: as above; type: cell-based; details: 25 μg/ml compound
Experimental: as §3, §4

IL-6 = test: as above; type: cell-based; details: 25 μg/ml compound
Experimental: as §3, §4

TNF-α [2] = test: as above; type: cell-based; details: 25 μg/ml compound
Experimental: as §3, §4

TNF-α [3] = test: Intracellular TNF-α in human mononuclear cells (flow cytometry); type: cell-based; details: for % TNFα- producing cells: DMSO 10.1
Experimental: [table] Incubation condition: Cells and mitogen added at the same time and the compound solution added immediately after in polypropylene tubes and incubated at 37° C. in CO2 incubator overnight. The following day the cells and the supernatant were harvested for TNF-α determination. Incubation condition: Cells and mitogen added at the same time and the compound solution added immediately after in polypropylene tubes and incubated at 37° C. in CO2 incubator overnight. The following day the cells and the supernatant were harvested for TNF-α determination.

IFN-γ = IFN-γ producing human mononuclear cells (PMA+inomycin); type: cell-based; details: for inhibition of IFN-γ production: concentration of 12.5 μg/ml
Experimental: Mitogens: LPS at a final conc. of 1 μg/ml for TNF-α and PMA+inomycin for IFN-γ.
Incubation condition: Cells and mitogen added at the same time and the compound solution added immediately after in polypropylene tubes and incubated at 37° C. in CO2 incubator overnight. The following day the cells and the supernatant were harvested for TNF-α determination.

T1 sequence (Q8K2B3 43-664): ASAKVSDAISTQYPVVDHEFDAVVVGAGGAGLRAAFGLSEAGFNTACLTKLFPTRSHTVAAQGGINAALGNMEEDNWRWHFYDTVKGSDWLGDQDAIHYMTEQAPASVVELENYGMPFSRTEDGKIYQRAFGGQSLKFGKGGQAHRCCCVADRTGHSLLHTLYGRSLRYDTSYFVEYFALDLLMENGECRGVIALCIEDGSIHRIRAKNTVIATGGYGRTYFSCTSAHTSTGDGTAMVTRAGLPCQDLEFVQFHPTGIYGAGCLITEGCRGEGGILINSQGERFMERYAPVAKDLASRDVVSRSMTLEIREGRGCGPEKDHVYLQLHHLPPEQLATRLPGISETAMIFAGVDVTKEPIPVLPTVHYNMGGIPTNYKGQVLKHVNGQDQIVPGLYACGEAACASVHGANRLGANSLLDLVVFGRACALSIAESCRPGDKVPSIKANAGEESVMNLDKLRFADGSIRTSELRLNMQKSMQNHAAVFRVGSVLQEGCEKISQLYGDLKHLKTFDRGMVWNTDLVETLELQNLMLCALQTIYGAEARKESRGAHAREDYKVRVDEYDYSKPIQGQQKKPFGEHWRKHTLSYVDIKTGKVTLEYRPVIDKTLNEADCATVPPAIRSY
T1 sequence (Q9CQA3 31-282 partner): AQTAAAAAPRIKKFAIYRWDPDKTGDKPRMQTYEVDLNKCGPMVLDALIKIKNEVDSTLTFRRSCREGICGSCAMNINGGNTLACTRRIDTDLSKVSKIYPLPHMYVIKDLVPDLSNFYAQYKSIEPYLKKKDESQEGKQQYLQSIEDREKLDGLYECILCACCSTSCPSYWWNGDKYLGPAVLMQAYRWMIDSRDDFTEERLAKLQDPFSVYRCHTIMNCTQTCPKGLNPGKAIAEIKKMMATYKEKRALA
T1 sequence (Q9CZB0 30-169 partner): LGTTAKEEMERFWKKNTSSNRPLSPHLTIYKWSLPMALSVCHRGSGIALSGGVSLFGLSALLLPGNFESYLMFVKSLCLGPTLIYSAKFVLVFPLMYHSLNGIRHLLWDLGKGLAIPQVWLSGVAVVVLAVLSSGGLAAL
T1 sequence (Q9CXV1 57-159 partner): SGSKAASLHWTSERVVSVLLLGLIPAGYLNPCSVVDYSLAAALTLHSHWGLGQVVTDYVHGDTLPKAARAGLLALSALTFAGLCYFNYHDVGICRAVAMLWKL

With C=CC(C)(C)c1cc(/C=C/C(=O)c2ccc(O)cc2)c(OC)cc1O [Licochalcone A] the IC50 (SDH (J774)) was 1122.2 μg/mg protein, the IC50 (NDH (human MNC)) was 454.2 μg/mg protein and the toxic effects [1] was “No toxic effects”. For the same molecule, the “Minimum inhibitory concentration, Coxsackie virus B4” value (Coxsackie virus B4) was <1/100, the “Minimum inhibitory concentration, Parainfluenza-3 Virus” value (Parainfluenza-3 Virus) was <1/100 and the “Minimum inhibitory concentration, Reovirus-1” value (Reovirus-1) was <1/100. The “Minimum inhibitory concentration, Simliki forest virus” value (Simliki forest virus) was <1/100, the “Minimum inhibitory concentration, Sindbis virus” value (Sindbis virus) was 1/600 and the “percentages of positive cells for IL-1ra” value (IL-1ra; LPS 1:1000, LPS alone 5.1) was 7.6%. The “percentages of positive cells for IL-1ra” value (IL-1ra; SPAG 1:12.5, SPAG alone 6.6) was 2.9%, the “percentages of positive cells for IL-1α” value (IL-1α; LPS 1:1000, LPS alone 13) was 15% and the “percentages of positive cells for IL-1α” value (IL-1α; SPAG 1:12.5, SPAG alone 11) was 9.1%. For the same molecule, the “percentages of positive cells for IL-1β” value (IL-1β; LPS 1:1000, LPS alone 9.1) was 12%, the “percentages of positive cells for IL-1β” value (IL-1β; SPAG 1:12.5, SPAG alone 13) was 13% and the “percentages of positive cells for IL-2” value (IL-2; LPS 1:1000, LPS alone 2.0) was 3.6%. For the same molecule, the “percentages of positive cells for IL-2” value (IL-2; SPAG 1:12.5, SPAG alone 3.1) was 5.2%, the “percentages of positive cells for IL-4” value (IL-4; LPS 1:1000, LPS alone 0) was 0% and the “percentages of positive cells for IL-4” value (IL-4; SPAG 1:12.5, SPAG alone 0) was 0.69%. For the same molecule, the “percentages of positive cells for IL-6” value (IL-6; LPS 1:1000, LPS alone 4.3) was 6.7%, the “percentages of positive cells for IL-6” value (IL-6; SPAG 1:12.5, SPAG alone 5.6) was 6.2% and the “percentages of positive cells for TNF-α” value (TNF-α [2]; LPS 1:1000, LPS alone 0.30) was 0.70%. For the same molecule, the “percentages of positive cells for TNF-α” value (TNF-α [2]; SPAG 1:12.5, SPAG alone 0.96) was 1.0%.
For COc1cc(/C=C/C(=O)c2ccc(C3CCCCC3)cc2)cc(OC)c1 [PH104, 3,5-dimethoxy-4′-cyclohexylchalcone], the “% TNF-α producing cells” value (TNF-α [3]; 1b Experiment 1, LPS 0.5 μg/ml, compound 12.5 μg/ml, DMSO 13.8) was 2.4%, the “% TNF-α producing cells” value (TNF-α [3]; 1b Experiment 1, LPS 0.5 μg/ml, compound 25.0 μg/ml, DMSO 13.8) was 1.4% and the “% TNF-α producing cells” value (TNF-α [3]; 1b Experiment 2, LPS 1 μg/ml, compound 3.125 μg/ml, DMSO 4.0) was 2.4%. The “% TNF-α producing cells” value (TNF-α [3]; 1b Experiment 2, LPS 1 μg/ml, compound 6.25 μg/ml, DMSO 4.0) was 1.0%, the “% TNF-α producing cells” value (TNF-α [3]; 1b Experiment 2, LPS 1 μg/ml, compound 12.5 μg/ml, DMSO 4.0) was 1.7% and the “% TNFα- producing cells” value (TNF-α [3]; 1b Experiment 3, LPS 1 μg/ml, compound 3.125 μg/ml) was 2.9%. The “% TNFα- producing cells” value (TNF-α [3]; 1b Experiment 3, LPS 1 μg/ml, compound 6.25 μg/ml) was 1.1%, the “% TNFα- producing cells” value (TNF-α [3]; 1b Experiment 3, LPS 1 μg/ml, compound 12.5 μg/ml) was 1.2% and the “% TNF-α producing cells” value (TNF-α [3]; 1b Experiment 4, LPS 1 μg/ml, compound 3.125 μg/ml, DMSO 14.6) was 3.0%. For the same molecule, the “% TNF-α producing cells” value (TNF-α [3]; 1b Experiment 4, LPS 1 μg/ml, compound 6.25 μg/ml, DMSO 14.6) was 0.8%, the “% TNF-α producing cells” value (TNF-α [3]; 1b Experiment 4, LPS 1 μg/ml, compound 12.5 μg/ml, DMSO 14.6) was 1.0% and the inhibition at 12.5 µg/mL (TNF-α [3]; Homo sapiens, 1b Experiment 1, LPS 0.5 μg/ml, compound 12.5 μg/ml, read-out: % inhibition) was 83%. For the same molecule, the inhibition at 25 µg/mL (TNF-α [3]; Homo sapiens, 1b Experiment 1, LPS 0.5 μg/ml, compound 25.0 μg/ml) was 90%, the inhibition at 3.125 µg/mL (TNF-α [3]; Homo sapiens, 1b Experiment 2, LPS 1 μg/ml, compound 3.125 μg/ml) was 40% and the inhibition at 6.25 µg/mL (TNF-α [3]; Homo sapiens, 1b Experiment 2, LPS 1 μg/ml, compound 6.25 μg/ml, read-out: Intracellular % inhibition) was 75%. The inhibition at 12.5 µg/mL (TNF-α [3]; Homo sapiens, 1b Experiment 2, LPS 1 μg/ml, compound 12.5 μg/ml, read-out: Intracellular % inhibition) was 58%, the inhibition at 3.125 µg/mL (TNF-α [3]; Homo sapiens, 1b Experiment 3, LPS 1 μg/ml, compound 3.125 μg/ml) was 71% and the inhibition at 6.25 µg/mL (TNF-α [3]; Homo sapiens, 1b Experiment 3, LPS 1 μg/ml, compound 6.25 μg/ml, read-out: Intracellular % inhibition) was 89%. For the same molecule, the inhibition at 12.5 µg/mL (TNF-α [3]; Homo sapiens, 1b Experiment 3, LPS 1 μg/ml, compound 12.5 μg/ml, read-out: Intracellular % inhibition) was 88%, the inhibition at 3.125 µg/mL (TNF-α [3]; Homo sapiens, 1b Experiment 4, LPS 1 μg/ml, compound 3.125 μg/ml) was 79% and the inhibition at 6.25 µg/mL (TNF-α [3]; Homo sapiens, 1b Experiment 4, LPS 1 μg/ml, compound 6.25 μg/ml, read-out: Intracellular % inhibition) was 95%. For the same molecule, the inhibition at 12.5 µg/mL (TNF-α [3]; Homo sapiens, 1b Experiment 4, LPS 1 μg/ml, compound 12.5 μg/ml, read-out: Intracellular % inhibition) was 93%, the “% IFN-γ producing cells” value (IFN-γ; 1b Experiment 2, PMA+inomycin, 12.5 μg/ml, DMSO Control 16.4) was 17.0% and the “inhibition of IFN-γ production” value (IFN-γ; 1b Experiment 3) was “no inhibition”. The “inhibition of IFN-γ production” value (IFN-γ; 1b Experiment 4) was “no inhibition” and the inhibition at 12.5 µg/mL (IFN-γ; Homo sapiens, 1b Experiment 2, PMA+inomycin, 12.5 μg/ml) was 0%.
